US10959432B2, “Microbiocidal oxadiazole derivatives” (Syngenta Participations AG, priority 2016, dated 2021)

Experiments:
Uromyces viciae-fabae = assay: Fungicidal activity against Uromyces viciae-fabae / field bean / leaf disc preventative (faba-bean rust); type: in vivo; details: foliar, 288 h, 100 ppm in the applied formulation, field bean leaf discs, preventative (inoculated two hours after application), assessed 12 days after application, read-out: disease control compared to untreated control leaf discs
Outline: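 Field bean leaf discs on water agar treated with 10 μl compound in acetone plus spreader, then spray-inoculated on the lower surface with Uromyces viciae-fabae spores 2 h later. Incubation at 22 °C, 18 h day, 70% RH; percent disease control versus untreated scored 12 days after application, compounds at 100 ppm.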

Phakopsora pachyrhizi = assay: Fungicidal activity against Phakopsora pachyrhizi / soybean / leaf disc preventative (Asian soybean rust); type: in vivo; details: foliar, 200 ppm in the applied formulation, soybean leaf disks, preventative (inoculated one day after application), assessed 12 to 14 days after application, read-out: disease control compared to untreated control leaf disks
Outline: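 Preventative test: compound applied to soybean leaf discs a day before spore inoculation of the lower surface. Discs kept at 20° C and 75% rh, first 24-36 h in darkness, then under 12 h light/day; disease control relative to untreated discs rated 12 to 14 days post-application.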

[1] = test system: Glomerella laqenarium (Colletotrichum lagenarium); assay: Fungicidal activity against Glomerella lagenarium (Colletotrichum lagenarium) liquid culture / cucumber / preventative (anthracnose); type: cell-based; details: Colletotrichum orbiculare; 20 ppm in the applied formulation; liquid culture in PDB, 24° C., 3 to 4 days after application; read-out: disease control compared to untreated control (inhibition of growth measured photometrically)
Outline: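 Test compound, applied from DMSO solution, is combined with PDB containing conidia taken from cryogenic storage. After 3–4 days at 24 °C, growth is measured photometrically and antifungal activity expressed as percent relative to untreated control.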

[2] = test system: Puccinia recondita f. sp. tritici; assay: Fungicidal activity against Puccinia recondita f. sp. tritici / wheat / leaf disc preventative (brown rust); type: in vivo; details: foliar, 200 ppm in the applied formulation, wheat leaf segments cv. Kanzler, preventative (inoculated 1 day after application), assessed 7 to 9 days after application, read-out: disease control compared to untreated control leaf disks
Outline: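 Preventative leaf-segment test: compound sprayed at 200 ppm onto wheat (cv. Kanzler) segments, brown rust spores applied 1 day after. Kept at 19C and 75% rh under 12 h light/dark cycles; disease control versus untreated check read 7 to 9 days post-application.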

[3] = test system: Puccinia recondita f. sp. tritici; assay: Fungicidal activity against Puccinia recondita f. sp. tritici / wheat / leaf disc curative (brown rust); type: in vivo; details: foliar, 200 ppm in the applied formulation, wheat leaf segments cv. Kanzler, curative (applied 1 day after inoculation), assessed 6 to 8 days after application, read-out: disease control compared to untreated control leaf disks
Outline: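 Curative test: compound, diluted from DMSO stock into water, applied one day after spore inoculation of wheat (cv. Kanzler) leaf segments kept on agar in darkness at 19° C. and 75% RH. Climate-cabinet incubation (19° C., 75% RH, 12 h photoperiod); disease control relative to untreated read 6–8 days post-application.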

`O=C(NCC1CCCC1)c1ccc(-c2noc(C(F)(F)F)n2)cc1F` [Compound 2b.8, N (cyclopentylmethyl)-2-fluoro-4-[5-(trifluoromethyl)-1,2,4-oxadiazol-3-yl]benzamide] showed a melting point of 122 to 125.6 °C, a pest or weed control at 100 ppm (Uromyces viciae-fabae) of no less than 80% and a pest or weed control at 200 ppm (Phakopsora pachyrhizi) of no less than 80%. For the same compound, the inhibition at 20 ppm [1] was no less than 80%.
With `CC(COC(F)F)NC(=O)c1ccc(-c2noc(C(F)(F)F)n2)cc1` (stereo not shown) [Compound 3a.43, N-[2-(difluoromethoxy)-1-methyl-ethyl]-4-[5-(trifluoromethyl)-1,2,4-oxadiazol-3-yl]benzamide] the melting point was 128 to 130 °C, the pest or weed control at 200 ppm [2] was no less than 80% and the pest or weed control at 200 ppm (Phakopsora pachyrhizi) was no less than 80%. The inhibition at 20 ppm [1] was no less than 80% and the pest or weed control at 200 ppm [3] was no less than 80%.
`O=C(NCCOC(F)F)c1ccc(-c2noc(C(F)(F)F)n2)cc1` [Compound 3a.45, N-[2-(difluoromethoxy)ethyl]-4-[5-(trifluoromethyl)-1,2,4-oxadiazol-3-yl]benzamide] gave a melting point of 117 to 120 °C, a pest or weed control at 200 ppm [2] of no less than 80% and a pest or weed control at 200 ppm (Phakopsora pachyrhizi) of no less than 80%. The inhibition at 20 ppm [1] was no less than 80% and the pest or weed control at 200 ppm [3] was no less than 80%.
In the case of `CC(C)CC(C)NC(=O)c1ccc(-c2noc(C(F)(F)F)n2)cc1F` (stereo not shown) [Compound 3b.7, N-(1,3-dimethylbutyl)-2-fluoro-4-[5-(trifluoromethyl)-1,2,4-oxadiazol-3-yl]benzamide], the melting point is reported as 108.5 to 110.4 °C, the pest or weed control at 100 ppm (Uromyces viciae-fabae) is reported as no less than 80% and the pest or weed control at 200 ppm [2] is reported as no less than 80%. The pest or weed control at 200 ppm (Phakopsora pachyrhizi) was no less than 80% and the inhibition at 20 ppm [1] was no less than 80%.
In the case of `Cc1ccc(CNC(=O)c2ccc(-c3noc(C(F)(F)F)n3)cc2)cc1` [Compound 4a.1, N-(p-tolylmethyl)-4-[5-(trifluoromethyl)-1,2,4-oxadiazol-3-yl]benzamide], the melting point is reported as 198 to 203 °C, the pest or weed control at 100 ppm (Uromyces viciae-fabae) is reported as no less than 80% and the pest or weed control at 200 ppm (Phakopsora pachyrhizi) is reported as no less than 80%. It also gave an inhibition at 20 ppm [1] of no less than 80%.
Compound `Cc1cccc(CNC(=O)c2ccc(-c3noc(C(F)(F)F)n3)cc2)c1` [Compound 4a.2, N-(m-tolylmethyl)-4-[5-(trifluoromethyl)-1,2,4-oxadiazol-3-yl]benzamide] has a melting point of 135 to 141 °C, a pest or weed control at 100 ppm (Uromyces viciae-fabae) of no less than 80% and a pest or weed control at 200 ppm [2] of no less than 80%. It also gave a pest or weed control at 200 ppm (Phakopsora pachyrhizi) of no less than 80% and an inhibition at 20 ppm [1] of no less than 80%.
With `COc1ccc(CNC(=O)c2ccc(-c3noc(C(F)(F)F)n3)cc2)cc1` [Compound 4a.3, N-[(4-methoxyphenyl)methyl]-4-[5-(trifluoromethyl)-1,2,4-oxadiazol-3-yl]benzamide] the melting point was 154 to 159 °C, the pest or weed control at 100 ppm (Uromyces viciae-fabae) was no less than 80% and the pest or weed control at 200 ppm [2] was no less than 80%. It also gave a pest or weed control at 200 ppm (Phakopsora pachyrhizi) of no less than 80% and an inhibition at 20 ppm [1] of no less than 80%.
Compound `O=C(NCc1ccccc1F)c1ccc(-c2noc(C(F)(F)F)n2)cc1F` [Compound 4b.1, 2-fluoro-N-[(2-fluorophenyl)methyl]-4-[5-(trifluoromethyl)-1,2,4-oxadiazol-3-yl]benzamide] has a melting point of 132 to 136 °C, a pest or weed control at 100 ppm (Uromyces viciae-fabae) of no less than 80% and a pest or weed control at 200 ppm [2] of no less than 80%. It also gave a pest or weed control at 200 ppm (Phakopsora pachyrhizi) of no less than 80% and an inhibition at 20 ppm [1] of no less than 80%.
Work on `O=C(NCc1ccc(F)cc1)c1ccc(-c2noc(C(F)(F)F)n2)cc1F` [Compound 4b.2] yielded a melting point of 145 to 147 °C, a pest or weed control at 100 ppm (Uromyces viciae-fabae) of no less than 80% and a pest or weed control at 200 ppm [2] of no less than 80%. For the same compound, the pest or weed control at 200 ppm (Phakopsora pachyrhizi) was no less than 80% and the inhibition at 20 ppm [1] was no less than 80%.
Compound `CC(NC(=O)c1ccc(-c2noc(C(F)(F)F)n2)cc1F)c1ccccc1` (stereo not shown) [Compound 4b.3, 2-fluoro-N-(1-phenylethyl)-4-[5-(trifluoromethyl)-1,2,4-oxadiazol-3-yl]benzamide] has a melting point of 121.1 to 123.7 °C, a pest or weed control at 100 ppm (Uromyces viciae-fabae) of no less than 80% and a pest or weed control at 200 ppm [2] of no less than 80%. It also gave a pest or weed control at 200 ppm (Phakopsora pachyrhizi) of no less than 80%.
In the case of `O=C(NCc1cccc(F)c1)c1ccc(-c2noc(C(F)(F)F)n2)cc1F` [Compound 4b.4, 2-fluoro-N-[(3-fluorophenyl)methyl]-4-[5-(trifluoromethyl)-1,2,4-oxadiazol-3-yl]benzamide], the melting point is reported as 129.4 to 130.9 °C, the pest or weed control at 100 ppm (Uromyces viciae-fabae) is reported as no less than 80% and the pest or weed control at 200 ppm [2] is reported as no less than 80%. For the same compound, the pest or weed control at 200 ppm (Phakopsora pachyrhizi) was no less than 80%.
With `COc1ccccc1CNC(=O)c1ccc(-c2noc(C(F)(F)F)n2)cc1F` [Compound 4b.5, 2-fluoro-N-[(2-methoxyphenyl)methyl]-4-[5-(trifluoromethyl)-1,2,4-oxadiazol-3-yl]benzamide] the melting point was 113.3 to 114.8 °C, the pest or weed control at 100 ppm (Uromyces viciae-fabae) was no less than 80% and the pest or weed control at 200 ppm [2] was no less than 80%. It also gave a pest or weed control at 200 ppm (Phakopsora pachyrhizi) of no less than 80% and an inhibition at 20 ppm [1] of no less than 80%.
In the case of `CN(Cc1cccs1)C(=O)c1ccc(-c2noc(C(F)(F)F)n2)cc1F` [Compound 5b.2, 2-fluoro-N-methyl-N-(2-thienylmethyl)-4-[5-(trifluoromethyl)-1,2,4-oxadiazol-3-yl]benzamide], the pest or weed control at 100 ppm (Uromyces viciae-fabae) is reported as no less than 80%, the pest or weed control at 200 ppm [2] is reported as no less than 80% and the pest or weed control at 200 ppm (Phakopsora pachyrhizi) is reported as no less than 80%. It also gave an inhibition at 20 ppm [1] of no less than 80% and a pest or weed control at 200 ppm [3] of no less than 80%.
Work on `O=C(NCc1ncc(C(F)(F)F)cc1Cl)c1ccc(-c2noc(C(F)(F)F)n2)cc1F` [Compound 5b.4, N-[[3-chloro-5-(trifluoromethyl)-2-pyridyl]methyl]-2-fluoro-4-[5-(trifluoromethyl)-1,2,4-oxadiazol-3-yl]benzamide] yielded a melting point of 126.6 to 128.3 °C, a pest or weed control at 100 ppm (Uromyces viciae-fabae) of no less than 80% and a pest or weed control at 200 ppm (Phakopsora pachyrhizi) of no less than 80%.
Work on `O=C(NCCc1ncc(C(F)(F)F)cc1Cl)c1ccc(-c2noc(C(F)(F)F)n2)cc1F` [Compound 5b.5, N-[2-[3-chloro-5-(trifluoromethyl)-2-pyridyl]ethyl]-2-fluoro-4-[5-(trifluoromethyl)-1,2,4-oxadiazol-3-yl]benzamide] yielded a melting point of 144.9 to 146.5 °C, a pest or weed control at 100 ppm (Uromyces viciae-fabae) of no less than 80% and a pest or weed control at 200 ppm (Phakopsora pachyrhizi) of no less than 80%.
`Cc1ccc(CNC(=O)c2ccc(-c3noc(C(F)(F)F)n3)cc2F)o1` [Compound 5b.9, 2-fluoro-N-[(5-methyl-2-furyl)methyl]-4-[5-(trifluoromethyl)-1,2,4-oxadiazol-3-yl]benzamide] showed a pest or weed control at 100 ppm (Uromyces viciae-fabae) of no less than 80%, a pest or weed control at 200 ppm [2] of no less than 80% and a pest or weed control at 200 ppm (Phakopsora pachyrhizi) of no less than 80%. For the same compound, the inhibition at 20 ppm [1] was no less than 80% and the pest or weed control at 200 ppm [3] was no less than 80%.
`O=C(NCc1ccco1)c1ccc(-c2noc(C(F)(F)F)n2)cc1F` [Compound 5b.11, 2-fluoro-N-(2-furylmethyl)-4-[5-(trifluoromethyl)-1,2,4-oxadiazol-3-yl]benzamide] gave a pest or weed control at 100 ppm (Uromyces viciae-fabae) of no less than 80%, a pest or weed control at 200 ppm [2] of no less than 80% and a pest or weed control at 200 ppm (Phakopsora pachyrhizi) of no less than 80%. For the same compound, the inhibition at 20 ppm [1] was no less than 80% and the pest or weed control at 200 ppm [3] was no less than 80%.
With `O=C(NCCc1cccs1)c1ccc(-c2noc(C(F)(F)F)n2)cc1F` [Compound 5b.13, 2-fluoro-N-[2-(2-thienyl)ethyl]-4-[5-(trifluoromethyl)-1,2,4-oxadiazol-3-yl]benzamide] the pest or weed control at 100 ppm (Uromyces viciae-fabae) was no less than 80%, the pest or weed control at 200 ppm [2] was no less than 80% and the pest or weed control at 200 ppm (Phakopsora pachyrhizi) was no less than 80%. For the same compound, the inhibition at 20 ppm [1] was no less than 80% and the pest or weed control at 200 ppm [3] was no less than 80%.
In the case of `Cc1ccc(CNC(=O)c2ccc(-c3noc(C(F)(F)F)n3)cc2Cl)o1` [Compound 5b.16, 2-chloro-N-[(5-methyl-2-furyl)methyl]-4-[5-(trifluoromethyl)-1,2,4-oxadiazol-3-yl]benzamide], the pest or weed control at 100 ppm (Uromyces viciae-fabae) is reported as no less than 80%, the pest or weed control at 200 ppm [2] is reported as no less than 80% and the pest or weed control at 200 ppm (Phakopsora pachyrhizi) is reported as no less than 80%. The inhibition at 20 ppm [1] was no less than 80% and the pest or weed control at 200 ppm [3] was no less than 80%.
For `O=C(NCc1ccco1)c1ccc(-c2noc(C(F)(F)F)n2)cc1Cl` [Compound 5b.17, 2-chloro-N-(2-furylmethyl)-4-[5-(trifluoromethyl)-1,2,4-oxadiazol-3-yl]benzamide], the pest or weed control at 100 ppm (Uromyces viciae-fabae) was no less than 80%, the pest or weed control at 200 ppm [2] was no less than 80% and the pest or weed control at 200 ppm (Phakopsora pachyrhizi) was no less than 80%. For the same compound, the inhibition at 20 ppm [1] was no less than 80% and the pest or weed control at 200 ppm [3] was no less than 80%.
`O=C(NCc1nccs1)c1ccc(-c2noc(C(F)(F)F)n2)cc1F` [Compound 5b.19, 2-fluoro-N-(thiazol-2-ylmethyl)-4-[5-(trifluoromethyl)-1,2,4-oxadiazol-3-yl]benzamide] gave a pest or weed control at 100 ppm (Uromyces viciae-fabae) of no less than 80%, a pest or weed control at 200 ppm [2] of no less than 80% and a pest or weed control at 200 ppm (Phakopsora pachyrhizi) of no less than 80%. The inhibition at 20 ppm [1] was no less than 80% and the pest or weed control at 200 ppm [3] was no less than 80%.
